Assay results: publication PMC5628445, “Four terpene synthases contribute to the generation of chemotypes in tea tree (Melaleuca alternifolia)” (BMC Plant Biology, 2017)

Tests used:
Assay in all cases: radiometric assay, pentane extraction and scintillation counting; Lineweaver-Burk
Type in all cases: biochemical, Melaleuca alternifolia
[1] = system: T1, MaTPS-Cin (1,8-cineole synthase); MaTPS-CinA; details: 0.25 mM manganese; 30 °C; 10 min; 1–30 μM 3H-GPP; crude E. coli extract; labelled compound
T1 construct: vector pASK-IBA7; expressed in E. coli, crude extract
Text: radiometric assay, pentane extraction and scintillation counting; Lineweaver-Burk on MaTPS-Cin (1,8-cineole synthase); MaTPS-CinA

[2] = system: T2, MaTPS-SaH (sabinene hydrate synthase); details: 0.25 mM manganese; 30 °C; 15 min; 1–30 μM 3H-GPP; crude E. coli extract; labelled compound
T2 construct: vector pASK-IBA7; expressed in E. coli, crude extract
Text: radiometric assay, pentane extraction and scintillation counting; Lineweaver-Burk on MaTPS-SaH (sabinene hydrate synthase)

[3] = system: T3, MaTPS-Tln (terpinolene synthase); details: 0.25 mM manganese; 30 °C; 15 min; 3H-GPP up to 100 μM; crude E. coli extract; labelled compound
T3 construct: vector pASK-IBA7; expressed in E. coli, crude extract
Text: radiometric assay, pentane extraction and scintillation counting; Lineweaver-Burk on MaTPS-Tln (terpinolene synthase)

- Km [1]: 31 ± 6.26 µM
- Km [2]: 11 ± 2 µM
- Km [3]: 21 ± 3.18 µM
Structure (SMILES): CC(C)=CCC/C(C)=C/COP(=O)(O)OP(=O)(O)O [GPP]
